{"source": "patent US20250018030A1", "about": "“PHARMACEUTICAL COMPOSITION FOR PROMOTING CANCER IMMUNOTHERAPY AND METHOD FOR PROMOTING CANCER IMMUNOTHERAPY” (China Medical University, priority 2023, published 2025)", "key": {"[1]": {"test_system": "Tc17 cells", "test": "Intracellular cytokine staining / flow cytometry of genipin-treated skewed Tc17 cells", "format": "cell-based, Mouse", "details": "FIG. 1E-1G", "protocol": "(§1) Mouse lymph nodes and spleens were harvested, and naïve CD4 or CD8 T cells isolated via magnetic bead separation (STEMCELL Technologies) and activated in α-CD3 (10 μg/ml) and α-CD28 (1 μg/ml) pre-coated 96-well plates. Skewing conditions were as follows: Th1 cells/Tc1 cells ([…] 10 μ/ml α-IL-4), Th2 cells/Tc2 cells (20 ng/ml IL-4 and 10 μ/ml α-IFN-γ), Th17 cells/Tc17 cells (20 ng/ml IL-6, 1.25 ng/ml […], 20 ng/ml IL-1β, 20 ng/ml IL-23, 10 μg/ml α-IFN-γ and 10 μg/ml α-IL-4), and Treg cells (5 ng/ml TGF-β, 10 μg/ml α-IFN-γ and 10 μg/ml α-IL-4) in the indicated medium. Cells were cultured for 4-5 days followed by treatment with genipin (3.125 μM, 6.25 μM, 12.5 μM) or DMSO for 12-16 hours.\n(§2) Monoclonal antibodies were purchased from BD Biosciences or eBioscience. For intracellular cytokine staining (ICS), cells were first restimulated by PMA/ionomycin for 5 hours in the presence of GolgiStop (BD Biosciences), followed by surface epitope staining markers before being fixed/permeabilized (BD Cytofix/Cytoperm™) and stained with antibodies targeting intracellular antigens. Cells were finally fixed with 1.5% formaldehyde for 10 minutes at room temperature and analyzed on a FACSVerse flow cytometer (BD Bioscience). Data were analyzed using FlowJo software (Tree Star Inc.)."}, "[2]": {"test_system": "Tc1 cells", "test": "Metabolic assays (Seahorse ECAR/OCR, mitochondrial pyruvate and acetyl CoA) in Tc1 cells", "format": "cell-based, Mouse", "protocol": "The real-time extracellular acidification rate (ECAR) and oxygen consumption rate (OCR) were measured using a Seahorse XF24 analyzer (Seahorse Bioscience), within XF Glycolysis Stress and XF Cell Mito Stress Test kits used to assess glycolysis and oxidative phosphorylation. 5×10^5 cells exposed to the indicated treatments were plated in an XF-24 microplate coated with Cell-Tak (Corning) one day before the assay. ECAR and OCR were measured after metabolic manipulations by the addition of oligomycin, carbonyl cyanide-p-trifluoromethoxy-phenylhydrazone (FCCP), 2-deoxyglucose (2-DG) and rotenone/anti-mycin A (R/A). Calculations were conducted with Agilent Seahorse Wave Software for Agilent Seahorse XF analyzers (Seahorse Bioscience). For isolation of mitochondria, Tc1 cells were frozen and thawed to weaken the membranes and resuspended in Reagent A of a mitochondria isolation kit (ab110170, Abcam), before being homogenized and centrifuged at 1,000×g for 10 minutes at 4° C. Supernatant was saved (SN #1) and the pellet resuspended in Reagent B. After homogenization and centrifugation, supernatant was saved (SN #2). SN #1 and SN #2 were mixed thoroughly and centrifuged at 12,000×g for 15 minutes at 4° C. The pellet was collected in Reagent C supplemented with protease inhibitors and was used for the pyruvate and acetyl COA assays. Briefly, the mitochondrial pyruvate and acetyl CoA levels in the Tc1 cells were assessed using a commercial Pyruvate Assay Kit (ab65342, Abcam) and PicoProbe Acetyl COA Assay Kit (ab87546, Abcam) according to the manufacturer's instructions."}, "[3]": {"test_system": "PBMC of PDAC patients", "test": "Ex vivo genipin treatment of PBMC of PDAC patients, flow cytometry", "format": "cell-based, human", "protocol": "as §2\n(§3) PDAC human subject study was approved by the Research Ethics Committee of China Medical University & Hospital (CMUH109-REC2-148). 10 ml of fresh blood and 0.1-0.5 mm^3 of tumor mass were collected on the same day from patients who underwent surgical resection. Monocytes were isolated from the patients' peripheral blood mononuclear cell (PBMC) or tumor mass. Cells were resuspended in RPMI medium containing 10% FBS and seeded at a density of 2×10^5/well in a 12-well plate. Cells were treated with genipin (12.5 μM, 25 μM) and incubated overnight before staining for the flow cytometry analysis."}, "[4]": {"test_system": "tumors of PDAC patients", "test": "Ex vivo genipin treatment of tumors of PDAC patients, flow cytometry", "format": "cell-based, human", "protocol": "as §2, §3"}, "[5]": {"test_system": "Th2 cells and regulatory T cells (Treg)", "test": "Populations of Th2 cells and Treg cells after genipin", "format": "cell-based, Mouse", "details": "genipin-treated; data not shown", "protocol": "as §1, §2"}, "[6]": {"test_system": "Th17 cells", "test": "Cytokine staining of genipin-treated skewed Th17 cells", "format": "cell-based, Mouse", "details": "data not shown", "protocol": "as §1, §2"}, "[7]": {"details": "genipin-treated Tc1 cells, data not shown"}}, "data": [{"compound": "COC(=O)C1=CO[C@@H](O)[C@@H]2C(CO)=CC[C@H]12", "note": "[genipin]", "values": [{"measurement": "IFN-γ production in Tc17 cells", "setting": "[1]", "value": "promoted IFN-γ"}, {"measurement": "IL-17 expression in Tc17 cells", "setting": "[1]", "value": "without impacting IL-17 expression"}, {"measurement": "Glycolysis readout, ECAR", "setting": "[2]; genipin 12.5 μM, Seahorse XF24, FIG. 2E", "value": "no functional impact"}, {"measurement": "Oxidative phosphorylation, OCR", "setting": "[2]; genipin 12.5 μM, Seahorse XF24, FIG. 2F", "value": "promoted oxidative phosphorylation"}, {"measurement": "Acetyl CoA level in the mitochondria", "setting": "[2]; genipin-treated Tc1 cells, FIG. 2G", "value": "increased the level of acetyl CoA"}, {"measurement": "Mitochondrial pyruvate", "setting": "[2]; genipin-treated Tc1 cells, FIG. 2H", "value": "parallel increase"}, {"measurement": "Acetyl CoA level in the cytosol", "setting": "[2]; [7]", "value": "increased the level of acetyl CoA"}, {"measurement": "Cytosolic fraction of pyruvate", "setting": "[2]; [7]", "value": "decreased"}, {"measurement": "Tc1 cells (IFN-γ-producing CD8+ T cells)", "setting": "[3]; genipin 12.5, 25 μM overnight, FIG. 8A-8B", "value": "increased Tc1 cells"}, {"measurement": "Th1 cells population (IFN-γ-producing CD4+ T cells)", "setting": "[3]; genipin overnight, FIG. 8E", "value": "no significant changes"}, {"measurement": "Th17 cells (IL-17-producing CD4+ T cells)", "setting": "[3]; genipin overnight, FIG. 8F", "value": "did not increase"}, {"measurement": "Tc1 cells (IFN-γ-producing CD8+ T cells)", "setting": "[4]; genipin 12.5, 25 μM overnight, FIG. 8C-8D", "value": "increased Tc1 cells"}, {"measurement": "Th1 cells population (IFN-γ-producing CD4+ T cells)", "setting": "[4]; genipin overnight, FIG. 8G", "value": "no significant changes"}, {"measurement": "Th17 cells (IL-17-producing CD4+ T cells)", "setting": "[4]; genipin overnight, FIG. 8H", "value": "did not increase"}, {"measurement": "Population of Th2 cells", "setting": "[5]", "value": "nor significantly altering the populations"}, {"measurement": "Population of regulatory T cells (Treg)", "setting": "[5]", "value": "nor significantly altering the populations"}, {"measurement": "IFN-γ in Th17 cells", "setting": "[6]", "value": "increased IFN-γ"}, {"measurement": "IL-17 expression in Th17 cells", "setting": "[6]", "value": "without an impact on IL-17 expression"}]}]}
